The target in experiment [1] is T1, CDK2 (cyclin A) (Homo sapiens, UniProt P24941).
T1 construct: purchased Invitrogen Life Technologies (screening service)
In words: Z'-LYTE kinase assay. It is filed as biochemical. The conditions noted are these: ATP 31 μM, 60 minutes. The procedure:
IC50 values of compounds against CDK2 (cyclin A) were determined by Z′-LYTE™. These screening assays were performed at Invitrogen Life Technologies (Grand Island, N.Y.) on a low volume NBS, black 384-well plate (#4514. Corning), 0.1 μL of 100× test compound in 100% DMSO (at specific solutions) was mixed with 2.4 μL of Kinase Buffer (50 mM HEPES pH 7.5, 0.01% BRIJ-35, 10 mM MgCl2, 1 mM EGTA), 5 μL of 2× Kinase (1.22-10.3 ng CDK2/cyclin A)/Peptide (2 μM Ser/Thr 12), and 2.5 μL of 4×ATP solution (31 μM). The plates were shaken for 30 seconds, and incubated for 60 minutes at room temperature. Development Reagent Solution (5 μL of 1:1024 dilution) was added to the plates followed with another 30-second plate shake and the plates were further incubated at room temperature for one hour. The plates were read on fluorescence plate reader with Dual emission at 445 nm and 520 nm.
(§1) The following equations were used for Z′-LYTE™ Screening Assay Data Analysis. Percent inhibition (100-% activity) was fitted to the “four-parameter logistic model” in XLfit for determination of IC50 values.

Experiment [2] deals with T2, CDK1 (cyclin B) (Homo sapiens, UniProt P06493).
T2 construct: purchased Invitrogen Life Technologies (screening service)
T2 sequence (P06493 whole entry): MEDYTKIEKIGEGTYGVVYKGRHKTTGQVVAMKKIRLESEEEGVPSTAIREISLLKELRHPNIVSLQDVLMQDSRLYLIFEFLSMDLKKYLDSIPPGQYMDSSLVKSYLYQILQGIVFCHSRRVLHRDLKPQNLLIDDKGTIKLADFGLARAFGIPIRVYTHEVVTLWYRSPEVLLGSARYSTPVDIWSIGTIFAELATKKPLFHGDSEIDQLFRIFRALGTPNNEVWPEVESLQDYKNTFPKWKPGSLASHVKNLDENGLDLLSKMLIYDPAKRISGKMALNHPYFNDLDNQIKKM
T2 sequence (P14635 whole entry partner): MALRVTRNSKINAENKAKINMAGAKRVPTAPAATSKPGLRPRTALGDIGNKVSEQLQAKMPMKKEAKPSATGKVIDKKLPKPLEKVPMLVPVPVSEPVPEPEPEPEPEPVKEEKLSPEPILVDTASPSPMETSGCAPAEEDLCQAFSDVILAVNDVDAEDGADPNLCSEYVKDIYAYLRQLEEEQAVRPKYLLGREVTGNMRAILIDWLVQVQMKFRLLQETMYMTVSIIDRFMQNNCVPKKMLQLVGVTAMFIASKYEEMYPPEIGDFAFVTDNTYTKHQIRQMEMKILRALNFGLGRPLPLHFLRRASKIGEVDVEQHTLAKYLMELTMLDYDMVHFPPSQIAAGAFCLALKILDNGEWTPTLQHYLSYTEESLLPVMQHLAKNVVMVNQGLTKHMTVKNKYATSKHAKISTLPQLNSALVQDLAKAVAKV
In words: Z'-LYTE kinase assay. It is filed as biochemical. Conditions: ATP 34 μM, 60 minutes. On the procedure:
IC50 values of compounds against CDK1 (cyclin B) were determined by Z′-LYTE™. These screening assays were performed at Invitrogen Life Technologies (Grand Island, N.Y.) on a low volume NBS, black 384-well plate (#4514, Corning), 0.1 μL of 100× test compound in 100% DMSO (at specific solutions) was mixed with 2.4 μL of Kinase Buffer (50 mM HEPES pH 7.5, 0.01% BRIJ-35, 10 mM MgCl2, 1 mM EGTA), 5 μL of 2× Kinase (3.5-46.4 ng CDK1/cyclin B)/Peptide (2 μM Ser/Thr 18), and 2.5 μL of 4×ATP solution (34 μM). The plates were shaken for 30 seconds, and incubated for 60 minutes at room temperature. Development Reagent Solution (5 μL of 1:1024 dilution) was added to the plates followed with another 30-second plate shake, and the plates were further incubated at room temperature for one hour. The plates were read on fluorescence plate reader with Dual emission at 445 nm and 520 nm.
as §1

In experiment [3] the test system is MCF-7. Briefly: Cancer cell proliferation assay as a single agent (cell viability). The class given is cell-based. Conditions: Homo sapiens, MCF7. On the procedure:
(§2) The effects of test compounds were studied in two breast cancer cell lines of different subtype. The cancer cells (Table 3) were harvested during the logarithmic growth period and counted. Cell concentrations were adjusted to the appropriate number with respective medium and 90 μL cell suspensions were added to 96-well plates. After cells were seeded, the plates were shaken gently to distribute cells evenly and incubated at 37° C., 5% CO2 on day 1.
(§3) Cells were treated with test compounds at 7 to 9 concentrations within a desired concentration range (e.g. 1.1 nM-10 μM) on day 2 by series diluting the test compound stock solution (10 mM in DMSO) with culture medium. Treatment duration was 144H (with a medium change at 72H) for both MCF-7 and DU4475 cells. Cell viability was assessed by Cell Titer-Glo® as recommended by Promega (Cat. No.: G7572), or by resazurin assay (Sigma Aldrich, Cat. No.: R7017) post treatment.
(§4) Cell viability data were plotted using GraphPad Prism (GraphPad Software, Inc., San Diego, Calif.). In addition, a nonlinear regression model with a sigmoidal dose response and variable slope within GraphPad Prism was used to calculate the IC50 value of individual test compounds.

In experiment [4] the test system is DU4475. Described as above. Conditions: Homo sapiens, DU-4475; Table 4; Rb negative breast carcinoma; 144H treatment. The class given is cell-based. On the procedure: as §2, §3, §4
Experiment [5] has as its system MCF-7-PR. In words: Cell viability in palbociclib-resistant cell line. It is filed as cell-based. Conditions: Table 5; palbociclib-resistant cell line. On the procedure:
as §3, §4
The effects of test compound in a palbociclib-resistant cell line and a parental, non-resistant cell line were compared. The palbociclib-resistant cell line (“MCF-7-PR”) was derived from the parental, non-resistant cell line (MCF-7 breast adenocarcinoma cells) by culture of cells over a period of three months in increasing concentrations of palbociclib, starting from about 350 nM and ending at about 850 nM, the final concentration at which they were then maintained in culture. […]

The target of experiment [6] is T3, CDK4 (Homo sapiens, UniProt P11802).
T3 construct: purchased Invitrogen PR8064 A
T3 sequence (P11802 whole entry): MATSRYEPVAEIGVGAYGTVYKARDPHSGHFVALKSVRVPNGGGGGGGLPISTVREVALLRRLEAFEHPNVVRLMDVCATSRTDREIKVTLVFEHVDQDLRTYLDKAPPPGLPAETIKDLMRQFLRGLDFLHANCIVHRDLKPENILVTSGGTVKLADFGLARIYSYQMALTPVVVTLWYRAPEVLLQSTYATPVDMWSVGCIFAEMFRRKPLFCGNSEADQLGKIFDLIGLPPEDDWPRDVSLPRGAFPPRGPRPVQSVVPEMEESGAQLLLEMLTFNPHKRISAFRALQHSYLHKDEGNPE
T3 sequence (P24385 whole entry partner): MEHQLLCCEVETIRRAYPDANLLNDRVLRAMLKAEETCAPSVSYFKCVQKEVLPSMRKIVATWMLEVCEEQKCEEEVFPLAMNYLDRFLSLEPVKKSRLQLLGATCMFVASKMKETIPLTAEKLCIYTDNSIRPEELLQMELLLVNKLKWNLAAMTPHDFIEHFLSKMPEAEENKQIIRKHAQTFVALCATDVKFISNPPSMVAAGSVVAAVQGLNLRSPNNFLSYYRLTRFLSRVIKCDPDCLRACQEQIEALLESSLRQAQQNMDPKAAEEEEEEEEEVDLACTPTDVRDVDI
Briefly: In vitro kinase inhibition, luminescence (ADP-Glo) with retinoblastoma as substrate. It is filed as biochemical. Conditions: ATP 25 μM, 2H at room temperature. On the procedure: (§5) IC50 values of compounds against CDK4 and CDK6 were determined by luminescence using retinoblastoma as substrate. Kinase assays were performed in kinase buffer (#PV6135, Invitrogen, Life Technologies Grand Island. N.Y.) where total reaction volume was […] in 96-well half area white plates (#3693, Costar). One microliter of 25× test compounds at specific concentrations (e.g., final concentration range: 0.1 nM-200 nM) was mixed with 10 μL of 2.5× kinase (5 nM, CDK4 #PR8064 A and CDK6 #PR8422B, Invitrogen) solution and 14 μL of 4× mixed solution with retinoblastoma (1 μM, #12-439, EMD Millipore. Hayward, Calif.) and ATP (25 μM, #V7038, Promega, Madison, Wis.). The plates were covered and incubated for 2H at room temperature. At the end of incubation, 25 μL of stop solution—ADP Glo reagent (#V7002. Promega) was added. After incubation for 45 min at room temperature, 50 μL of detection reagent (##V7002, Promega) was added. Readings were taken at 15 min and 45 min incubation after detection reagent was added in a Synergy Neo Plate reader (BioTek, Winooski, Vt.) at single excitation of 340 nm and Dual emission at 495 nm and 520 nm respectively. The following equations were used in the CDK4 and CDK6 assay data analysis. Percent inhibition (100-% activity) was fitted to the “four-parameter logistic model” in XLfit for determination of IC50 values.
(§6) Percent conversion of enzyme=100−{(RLUNo Drug−No enzyme*100)/RLUNo drug+Enzyme} Equation 1:
(§7) Percent conversion at each data point=100−{(RLUAverage(Drug+enzyme)*100)/RLUNo drug+Enzyme} Equation 2:
(§8) Percent Inhibition=100*(% Conversioneach data point/% ConversionEnzyme) Equation 3: […]
A general note: ADP-Glo first removes unused ATP, then detects ADP through luciferase.

Experiment [7] addresses T4, CDK6 (Homo sapiens, UniProt Q00534).
T4 construct: purchased Invitrogen PR8422B
The experiment is described as above. It is filed as biochemical. Conditions: ATP 25 μM, 2H at room temperature. On the procedure:
as §5, §6, §7, §8

The IC50 is the midpoint of a concentration-inhibition curve.

T4 sequence (Q00534 whole entry): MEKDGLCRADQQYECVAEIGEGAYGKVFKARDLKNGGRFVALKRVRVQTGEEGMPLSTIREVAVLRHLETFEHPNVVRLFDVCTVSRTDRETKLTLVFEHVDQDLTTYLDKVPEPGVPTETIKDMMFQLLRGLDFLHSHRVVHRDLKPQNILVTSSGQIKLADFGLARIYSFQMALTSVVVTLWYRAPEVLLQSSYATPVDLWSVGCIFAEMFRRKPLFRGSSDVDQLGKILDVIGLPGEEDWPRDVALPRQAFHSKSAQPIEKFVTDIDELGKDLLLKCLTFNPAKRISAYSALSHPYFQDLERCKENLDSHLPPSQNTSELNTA
T4 sequence (P24385 whole entry partner): as the sequence (P24385 whole entry partner) above

As for `Cc1nn(C2CCNCC2)cc1Nc1ncc(F)c(-c2cc(F)c3c(c2)N(C(C)C)CCO3)n1` [Compound 67, 5-fluoro-4-(8-fluoro-4-isopropyl-3,4-dihydro-2H-benzo[b][1,4]oxazin-6-yl)-N-(3-methyl-1-(piperidin-4-yl)-1H-pyrazol-4-yl)pyrimidin-2-amine], the IC50 in experiment [1] is 0.045 µM; in experiment [2], 0.094 µM; in experiment [3] (Table 4, Rb positive breast adenocarcinoma, 144H treatment) it was 0.08 µM; in experiment [3] (Table 5, parental, non-resistant cell line), 0.04 µM; in experiment [4], 0.13 µM; in experiment [5], 0.072 µM. Besides, the IC50 in experiment [6] was found to be 0.016 µM; in experiment [7], 0.045 µM.

(Values after patent US20220347187A1, “HETEROCYCLIC COMPOUNDS AS KINASE INHIBITORS” (Nuvation Bio Inc., priority 2019, published 2022).)
